Assay results taken from patent publication US20240059671A1, “TYROSINE KINASE 2 (TYK2) DEGRADATION COMPOUNDS AND METHODS OF USE” (CULLGEN (SHANGHAI), INC., priority 2020, published 2024).

Molecular target: TYK2 (Homo sapiens, UniProt P29597)
Experiment: TYK2 protein degradation in MOLT-4 cells by immunoblotting
Assay type: cell-based
Parameters: endogenous in cells; host or cells: MOLT-4
Conditions: MOLT-4 cells, 24 hours
Method: MOLT-4 cells were treated with compounds at 0.5 and 5 μM concentrations for 24 hours.
MOLT-4 cells were treated with CPD-038, CPD-039, and CPD-040 at 0.04, 0.2, 1, and 5 μM concentrations for 24 hours.
MOLT-4 or NOMO-1 cells were cultured at 37° C. with 5% CO2 in RPMI 1640 Medium supplemented with 10% fetal bovine serum. Cells were authenticated using the short tandem repeat (STR) assays. Mycoplasma test results were negative.
Cultured cells were washed with cold PBS once and lysed in cold RIPA buffer supplemented with protease inhibitors and phosphatase inhibitors (Beyotime Biotechnology). The solutions were then incubated at 4° C. for 30 minutes with gentle agitation to fully lyse cells. Cell lysates were centrifuged at 13,000 rpm for 10 minutes at 4° C. and pellets were discarded. Total protein concentrations in the lysates were determined by BCA assays (Beyotime Biotechnology). Cell lysates were mixed with Laemmli loading buffer to 1× and heated at 99° C. for 5 min. Proteins were resolved on SDS-PAGE and visualized by chemiluminescence. Images were taken by a ChemiDoc MP Imaging system (Bio-Rad). Protein bands were quantitated using the accompanied software provided by Bio-Rad.
The percentage of TYK2 protein degradation of each compound at 0.5 and 5 μM determined in MOLT-4 cells as described in Methods.

Sequence of TYK2 (P29597 whole entry): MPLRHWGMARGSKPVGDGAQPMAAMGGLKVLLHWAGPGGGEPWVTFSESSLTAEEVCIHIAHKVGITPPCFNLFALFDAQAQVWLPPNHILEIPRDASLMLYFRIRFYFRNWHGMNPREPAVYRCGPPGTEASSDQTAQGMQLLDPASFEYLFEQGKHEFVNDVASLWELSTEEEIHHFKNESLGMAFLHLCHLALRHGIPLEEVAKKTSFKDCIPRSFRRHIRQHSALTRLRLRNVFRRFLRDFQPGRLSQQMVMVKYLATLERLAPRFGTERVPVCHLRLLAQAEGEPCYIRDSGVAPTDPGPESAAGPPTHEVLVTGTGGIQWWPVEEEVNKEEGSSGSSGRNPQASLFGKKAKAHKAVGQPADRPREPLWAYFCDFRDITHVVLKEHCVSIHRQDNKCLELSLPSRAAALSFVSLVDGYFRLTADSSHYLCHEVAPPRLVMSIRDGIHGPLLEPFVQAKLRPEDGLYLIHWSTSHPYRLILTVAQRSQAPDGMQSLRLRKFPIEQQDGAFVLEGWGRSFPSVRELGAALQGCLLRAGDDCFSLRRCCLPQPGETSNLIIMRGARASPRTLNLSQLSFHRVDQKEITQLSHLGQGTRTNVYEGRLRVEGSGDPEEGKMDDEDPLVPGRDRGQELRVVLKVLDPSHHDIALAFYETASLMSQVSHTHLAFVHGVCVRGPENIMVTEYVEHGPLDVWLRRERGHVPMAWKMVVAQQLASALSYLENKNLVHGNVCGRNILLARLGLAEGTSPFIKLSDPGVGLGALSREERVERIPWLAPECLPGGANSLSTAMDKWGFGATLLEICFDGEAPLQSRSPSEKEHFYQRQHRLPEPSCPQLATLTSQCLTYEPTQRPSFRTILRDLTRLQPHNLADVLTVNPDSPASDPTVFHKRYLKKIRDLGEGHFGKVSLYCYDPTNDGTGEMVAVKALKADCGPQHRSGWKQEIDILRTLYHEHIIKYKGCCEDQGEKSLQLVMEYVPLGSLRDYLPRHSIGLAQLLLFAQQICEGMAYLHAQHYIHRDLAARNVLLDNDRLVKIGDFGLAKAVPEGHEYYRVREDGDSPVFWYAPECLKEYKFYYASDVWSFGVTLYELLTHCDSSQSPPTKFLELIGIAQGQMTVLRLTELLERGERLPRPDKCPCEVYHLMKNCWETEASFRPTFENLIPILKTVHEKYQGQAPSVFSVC

TYK2 Degradation (0.5 μM) [%]	TYK2 Degradation (5 μM) [%]	TYK2 Degradation (MOLT-4, 0.5 μM)	TYK2 Degradation (MOLT-4, 5 μM)	Structure (SMILES)
≤20	≤20			CNC(=O)c1nnc(NC(=O)CNC(=O)CCCCNc2ccc3c(c2)C(=O)N(C2CCC(=O)NC2=O)C3=O)cc1Nc1cccc(-c2ncn(C)n2)c1OC (stereo not shown) [CPD-057, 6-(2-(5-((2-(2,6-Dioxopiperidin-3-yl)-1,3-dioxoisoindolin-5-yl)amino)pentanamido)acetamido)-4-((2-methoxy-3-(1-methyl-1H-1,2,4-triazol-3-yl)phenyl)amino)-N-methylpyridazine-3-carboxamide]
≤20	≤20			CNC(=O)c1nnc(NC(=O)CNC(=O)CCCCCCNc2ccc3c(c2)C(=O)N(C2CCC(=O)NC2=O)C3=O)cc1Nc1cccc(-c2ncn(C)n2)c1OC (stereo not shown) [CPD-059, 6-(2-(7-((2-(2,6-Dioxopiperidin-3-yl)-1,3-dioxoisoindolin-5-yl)amino)heptanamido)acetamido)-4-((2-methoxy-3-(1-methyl-1H-1,2,4-triazol-3-yl)phenyl)amino)-N-methylpyridazine-3-carboxamide]
≤20				CNC(=O)c1nnc(NC(=O)C2CC2)cc1Nc1cccc(-c2ncn(CCNC(=O)CCCCCCCNc3cccc4c3C(=O)N(C3CCC(=O)NC3=O)C4=O)n2)c1OC (stereo not shown) [CPD-007, 6-(Cyclopropanecarboxamido)-4-((3-(1-(2-(8-((2-(2,6-dioxopiperidin-3-yl)-1,3-dioxoisoindolin-4-yl)amino)octanamido)ethyl)-1H-1,2,4-triazol-3-yl)-2-methoxyphenyl)amino)-N-methylpyridazine-3-carboxamide]
≤20				CNC(=O)c1nnc(NC(=O)C2CC2)cc1Nc1cccc(-c2ncn(CCNC(=O)CCOCCOCCOCCOCCOCCNc3cccc4c3C(=O)N(C3CCC(=O)NC3=O)C4=O)n2)c1OC (stereo not shown) [CPD-012, 6-(Cyclopropanecarboxamido)-4-((3-(1-(1-((2-(2,6-dioxopiperidin-3-yl)-1,3-dioxoisoindolin-4-yl)amino)-18-oxo-3,6,9,12,15-pentaoxa-19-azahenicosan-2l-yl)-1H-1,2,4-triazol-3-yl)-2-methoxyphenyl)amino)-N-methylpyridazine-3-carboxamide]
≤20				CNC(=O)c1nnc(NC(=O)C2CC2)cc1Nc1cccc(-c2ncn(CCNC(=O)CCCCNc3ccc4c(c3)C(=O)N(C3CCC(=O)NC3=O)C4=O)n2)c1OC (stereo not shown) [CPD-016, 6-(Cyclopropanecarboxamido)-4-((3-(1-(2-(5-((2-(2,6-dioxopiperidin-3-yl)-1,3-dioxoisoindolin-5-yl)amino)pentanamido)ethyl)-1H-1,2,4-triazol-3-yl)-2-methoxyphenyl)amino)-N-methylpyridazine-3-carboxamide]
≤20	≤20			CNC(=O)c1nnc(NC(=O)C2CC2)cc1Nc1cccc(-c2ncn(CCNC(=O)CCCCCNc3ccc4c(c3)C(=O)N(C3CCC(=O)NC3=O)C4=O)n2)c1OC (stereo not shown) [CPD-023, 6-(Cyclopropanecarboxamido)-4-((3-(1-(2-(6-((2-(2,6-dioxopiperidin-3-yl)-1,3-dioxoisoindolin-5-yl)amino)hexanamido)ethyl)-1H-1,2,4-triazol-3-yl)-2-methoxyphenyl)amino)-N-methylpyridazine-3-carboxamide]
≤20	≤20			CNC(=O)c1nnc(NC(=O)CNC(=O)CCCNc2ccc3c(c2)C(=O)N(C2CCC(=O)NC2=O)C3=O)cc1Nc1cccc(-c2ncn(C)n2)c1OC (stereo not shown) [CPD-056, 6-(2-(4-((2-(2,6-Dioxopiperidin-3-yl)-1,3-dioxoisoindolin-5-yl)amino)butanamido)acetamido)-4-((2-methoxy-3-(1-methyl-1H-1,2,4-triazol-3-yl)phenyl)amino)-N-methylpyridazine-3-carboxamide]

More lines, now with the values behind:

Structure (SMILES)	TYK2 Degradation (0.5 μM) [%]	TYK2 Degradation (5 μM) [%]	TYK2 Degradation (MOLT-4, 0.5 μM)	TYK2 Degradation (MOLT-4, 5 μM)
CNC(=O)c1nnc(NC(=O)C2CC2)cc1Nc1cccc(-c2ncn(CCNC(=O)CCOCCOCCOCCC(=O)N[C@H](C(=O)N3C[C@H](O)C[C@H]3C(=O)NCc3ccc(-c4scnc4C)cc3)C(C)(C)C)n2)c1OC [CPD-071, 6-(Cyclopropanecarboxamido)-4-((3-(1-((5)-18-((2S,4R)-4-hydroxy-2-((4-(4-methylthiazol-5-yl)benzyl)carbamoyl)pyrrolidine-1-carbonyl)-19,19-dimethyl-4,16-dioxo-7,10,13-trioxa-3,17-diazaicosyl)-1H-1,2,4-triazol-3-yl)-2-methoxyphenyl)amino)-N-methylpyridazine-3-carboxamide]	≤20	≤20		
CNC(=O)c1nnc(NC(=O)CNC(=O)CCCCCNC(=O)C[C@H](NC(=O)[C@@H]2C[C@@H](O)CN2C(=O)[C@@H](NC(=O)C2(F)CC2)C(C)(C)C)c2ccc(-c3scnc3C)cc2)cc1Nc1cccc(-c2ncn(C)n2)c1OC [CPD-090, 6-(2-(6-((S)-3-((2S,4R)-1-((S)-2-(1-Fluorocyclopropane-1-carboxamido)-3,3-dimethylbutanoyl)-4-hydroxypyrrolidine-2-carboxamido)-3-(4-(4-methylthiazol-5-yl)phenyl)propanamido)hexanamido)acetamido)-4-((2-methoxy-3-(1-methyl-1H-1,2,4-triazol-3-yl)phenyl)amino)-N-methylpyridazine-3-carboxamide]			C (C: ≤20% TYK2 degradation)	C (C: ≤20% TYK2 degradation)
CNC(=O)c1nnc(NC(=O)CNC(=O)CCCCCOc2cc(-c3scnc3C)ccc2CNC(=O)[C@@H]2C[C@@H](O)CN2C(=O)[C@@H](NC(=O)C2(F)CC2)C(C)(C)C)cc1Nc1cccc(-c2ncn(C)n2)c1OC [CPD-105, 6-(2-(6-(2-(((2S,4R)-1-((S)-2-(1-Fluorocyclopropane-1-carboxamido)-3,3-dimethylbutanoyl)-4-hydroxypyrrolidine-2-carboxamido)methyl)-5-(4-methylthiazol-5-yl)phenoxy)hexanamido)acetamido)-4-((2-methoxy-3-(1-methyl-1H-1,2,4-triazol-3-yl)phenyl)amino)-N-methylpyridazine-3-carboxamide]			C (C: ≤20% TYK2 degradation)	C (C: ≤20% TYK2 degradation)
CNC(=O)c1nnc(NC(=O)CNC(=O)COCCOCCOCCOCCOCC(=O)N[C@H](C(=O)N2C[C@H](O)C[C@H]2C(=O)NCc2ccc(-c3scnc3C)cc2)C(C)(C)C)cc1Nc1cccc(-c2ncn(C)n2)c1OC [CPD-032, N^1—((S)-1-((2S,4R)-4-Hydroxy-2-((4-(4-methylthiazol-5-yl)benzyl)carbamoyl)pyrrolidin-1-yl)-3,3-dimethyl-1-oxobutan-2-yl)-N^17-(2-((5-((2-methoxy-3-(1-methyl-1H-1,2,4-triazol-3-yl)phenyl)amino)-6-(methylcarbamoyl)pyridazin-3-yl)amino)-2-oxoethyl)-3,6,9,12,15-pentaoxaheptadecanediamide]	≤20	≤20		
CNC(=O)c1nnc(Nc2ccc(N3CCN(C(=O)CCCCC(=O)N[C@H](C(=O)N4C[C@H](O)C[C@H]4C(=O)NCc4ccc(-c5scnc5C)cc4)C(C)(C)C)CC3)cn2)cc1Nc1cccc(-c2ncn(C)n2)c1OC [CPD-098, 6-((5-(4-(6-(((S)-1-((2S,4R)-4-Hydroxy-2-((4-(4-methylthiazol-5-yl)benzyl)carbamoyl)pyrrolidin-1-yl)-3,3-dimethyl-1-oxobutan-2-yl)amino)-6-oxohexanoyl)piperazin-1-yl)pyridin-2-yl)amino)-4-((2-methoxy-3-(1-methyl-1H-1,2,4-triazol-3-yl)phenyl)amino)-N-methylpyridazine-3-carboxamide]			C (C: ≤20% TYK2 degradation)	C (C: ≤20% TYK2 degradation)
CNC(=O)c1nnc(NC(=O)CNC(=O)CCOCCOCCOCCC(=O)N[C@H](C(=O)N2C[C@H](O)C[C@H]2C(=O)NCc2ccc(-c3scnc3C)cc2)C(C)(C)C)cc1Nc1cccc(-c2ncn(C)n2)c1OC [CPD-030, 6-((S)-18-((2S,4R)-4-Hydroxy-2-((4-(4-methylthiazol-5-yl)benzyl)carbamoyl)pyrrolidine-1-carbonyl)-19,19-dimethyl-4,16-dioxo-7,10,13-trioxa-3,17-diazaicosanamido)-4-((2-methoxy-3-(1-methyl-1H-1,2,4-triazol-3-yl)phenyl)amino)-N-methylpyridazine-3-carboxamide]	≤20	≤20		
CNC(=O)c1nnc(NC(=O)C2CC2)cc1Nc1cccc(-c2ncn(CCNC(=O)COCCOCCOCC(=O)N[C@H](C(=O)N3C[C@H](O)C[C@H]3C(=O)NCc3ccc(-c4scnc4C)cc3)C(C)(C)C)n2)c1OC [CPD-070, 6-(Cyclopropanecarboxamido)-4-((3-(1-((S)-16-((2S,4R)-4-hydroxy-2-((4-(4-methylthiazol-5-yl)benzyl)carbamoyl)pyrrolidine-1-carbonyl)-17,17-dimethyl-4,14-dioxo-6,9,12-trioxa-3,15-diazaoctadecyl)-1H-1,2,4-triazol-3-yl)-2-methoxyphenyl)amino)-N-methylpyridazine-3-carboxamide]	≤20	≤20		
